Assays:
human ATB^0,+ [1] = molecular target: T1, human ATB^0,+ (Homo sapiens, UniProt Q9UN76); experiment: Block of inward currents induced by amino acid mixture simulating plasma in X. laevis oocytes expressing human ATB^0,+; assay type: cell-based
T1 construct: The human ATB^0,+ cDNA was cloned from an MCF7 cell (a human mammary epithelial cancer cell line) cDNA library; expressed in transfected cells; host or cells: Xenopus laevis oocytes injected with 50 ng capped cRNA
T1 sequence (Q9UN76 1-642): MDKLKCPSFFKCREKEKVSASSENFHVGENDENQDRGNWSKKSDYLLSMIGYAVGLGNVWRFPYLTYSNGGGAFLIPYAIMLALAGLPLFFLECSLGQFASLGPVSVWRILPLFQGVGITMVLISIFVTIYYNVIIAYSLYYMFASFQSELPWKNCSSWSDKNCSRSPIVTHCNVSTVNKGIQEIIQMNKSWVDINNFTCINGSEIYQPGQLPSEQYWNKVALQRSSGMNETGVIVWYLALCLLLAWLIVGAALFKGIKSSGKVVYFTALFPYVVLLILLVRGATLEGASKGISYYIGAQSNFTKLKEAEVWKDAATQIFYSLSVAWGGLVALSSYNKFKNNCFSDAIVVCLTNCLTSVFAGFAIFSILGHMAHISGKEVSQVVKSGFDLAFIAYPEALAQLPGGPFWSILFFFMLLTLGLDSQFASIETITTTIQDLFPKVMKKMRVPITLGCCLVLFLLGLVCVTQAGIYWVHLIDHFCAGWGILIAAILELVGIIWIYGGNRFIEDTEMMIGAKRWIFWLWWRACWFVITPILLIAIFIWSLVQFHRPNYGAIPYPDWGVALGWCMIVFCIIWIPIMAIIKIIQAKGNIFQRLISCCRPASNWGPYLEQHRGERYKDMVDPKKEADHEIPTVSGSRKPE
Experimental: (§1) Capped cRNA from the cloned mouse or human ATB^0,+ cDNA was synthesized using the mMESSAGE mMACHTNE kit (Ambion, Austin, Tex., U.S.A.). Mature oocytes (stage IV or V) from X. laevis were injected with 50 ng of cRNA. Uninjected oocytes served as controls. The oocytes were used for electrophysiological studies 3-6 days after cRNA injection. Electrophysiological studies were performed by the two-microelectrode voltage-clamp method (Nakanishi et al., 2001, J. Physiol. 532, 297-304). Oocytes were superfused with an NaCl-containing buffer (100 mM NaCl, 2 mM KCl, 1 mM MgCl2, 1 mM CaCl2, 3 mM Hepes, 3 mM Mes and 3 mM Tris, pH 7.5), followed by the same buffer containing tryptophan derivatives. The membrane potential was clamped at −50 mV. The differences between the steady-state currents measured in the presence and absence of substrates were considered as the substrate-induced currents. In the analysis of the saturation kinetics of substrate-induced currents, the kinetic parameter K0.5 (i.e. substrate concentration necessary for induction of half-maximal current) was calculated by fitting the values of the substrate-induced currents to the Michaelis-Menten equation. The Na^+ and Cl^− activation kinetics of substrate-induced currents were analysed by measuring the substrate-specific currents in the presence of increasing concentrations of Na^+ (concentration of Cl^− kept constant at 100 mM) or in the presence of increasing concentrations of Cl^− (concentration of Na^+ kept constant at 100 mM). In these experiments, the composition of the superfusion buffer was modified to contain 2 mM potassium gluconate, 1 mM MgSO4 and 1 mM calcium gluconate in place of KCl, MgCl2 and CaCl2 respectively. The data from these experiments were analysed by the Hill equation to determine the Hill coefficient (h; number of Na^+ and Cl^− ions involved in the activation process). The kinetic parameters were determined by using the commercially available computer program Sigma Plot, version 6.0 (SPSS, Chicago, Ill., U.S.A.). Uninjected oocytes were used to determine the currents induced by tryptophan derivatives due to entry via transporters that may be constitutively expressed in the oocytes. At a concentration of 2.5 mM, the currents induced by these compounds were in the range of 0-3 nA in uninjected oocytes. These currents were less than 2% of the corresponding currents induced in ATB^0,+ cRNA-injected oocytes. Therefore the endogenous currents associated with the constitutively expressed transporters were not considered in the analysis of kinetic parameters of ATB^0,+ transport activity.
These studies with α-methyl-DL-tryptophan as a blocker of ATB^0,+ were carried out with L-tryptophan at sub-saturating concentrations. […] Therefore, using the Xenopus oocyte heterologous expression system, we monitored the transport activity of human ATB^0,+ in the presence of an amino acid mixture consisting of 18 different amino acids, each at its respective physiological concentration found in plasma (Glew et al., 2004, Clin. Chim. Acta 342, 179-185) (Table 1). Inward currents were detected under these conditions in oocytes expressing human ATB^0,+. […] We then monitored the ability of α-methyl-DL-tryptophan to block the inward currents induced by the same mixture of amino acids in oocytes expressing human ATB^0,+ (FIG. 4B). […]

HCT116 and LS174T cells [2] = experiment: Amino acid starvation markers: ASNS and CHOP gene induction in ATB^0,+-positive colon cancer cell lines; assay type: cell-based, human; details: 250 μM; 24 hour exposure
Experimental: (§2) The mTOR pathway plays a critical role in nutrient signaling in mammalian cells (Wang and Proud, 2006, Physiology (Bethesda) 21: 362-369). Amino acid starvation leads to specific changes in this pathway. We sought evidence for amino acid starvation in ATB^0,+-positive colon cancer cell lines when exposed to α-methyl-L-tryptophan (α-MLT) (250 μM). […] These changes were also accompanied with cell cycle arrest in cancer cell lines (FIG. 16). In the normal cell line CCD841, there was no difference between control and α-MLT-treated cells in terms of percent of cells in difference cell cycle stages. […] The phosphorylation pattern observed in the two cancer cell lines is a hallmark of changes in mTOR pathway in response to amino acid deprivation. Autophagy (self-cannabilism) is another cellular process that is induced when cells undergo amino acid deprivation (Eisenberg-Lerner and Kimchi, 2009, Apoptosis 14: 376-391). To survive in the absence of exogenous essential amino acids during amino acid deprivation, cells engage in autophagic degradation of intracellular macromolecules and organelles as a source of these amino acids. Therefore, we investigated the process of autophagy in LS174T cells with and without exposure to α-MLT for 24 hours. For this, we analyzed the distribution of LC-3 protein. […] Apoptosis was quantified by FACS analysis.

HCT116 and LS174T cells [3] = experiment: Cell cycle analysis in colon cancer cell lines; assay type: cell-based, human; details: 250 μM; 24 hour
Experimental: as §2

CCD841 cells [4] = experiment: Cell cycle analysis in normal colon cell line; assay type: cell-based, human; details: 250 μM; 24 hour
Experimental: as §2

HCT116 and LS174T cells [5] = experiment: mTOR pathway: phosphorylation of S6 protein and S6 kinase in colon cancer cell lines; assay type: cell-based, human; details: 24 h exposure
Experimental: as §2

CCD841 cells [6] = experiment: mTOR pathway: phosphorylation of S6 protein and S6 kinase in normal colon cell line; assay type: cell-based, human; details: 24 h exposure
Experimental: as §2

LS174T cells = experiment: Autophagy: immunofluorescent localization of LC-3 in colon cancer cells; assay type: cell-based, human; details: 24 hours exposure
Experimental: as §2

CCD841 cells [7] = experiment: Autophagy: immunofluorescent localization of LC-3 in normal colon cells; assay type: cell-based, human; details: absence or presence of α-MLT
HCT116 and LS174T cells [8] = experiment: Apoptosis (sub-G1 cells, FACS) in colon cancer cell lines; assay type: cell-based, human; details: 72 hours
Experimental: as §2

mouse ATB^0,+ [9] = molecular target: T2, mouse ATB^0,+ (Mus musculus, UniProt Q9JMA9); experiment: Inhibition of ATB^0,+-mediated glycine uptake in HRPE cells expressing cloned mouse ATB^0,+; assay type: cell-based; details: glycine 10 μM; inhibitor 1 mM; 30 min; NaCl; HRPE cells
T2 sequence (Q9JMA9 1-638): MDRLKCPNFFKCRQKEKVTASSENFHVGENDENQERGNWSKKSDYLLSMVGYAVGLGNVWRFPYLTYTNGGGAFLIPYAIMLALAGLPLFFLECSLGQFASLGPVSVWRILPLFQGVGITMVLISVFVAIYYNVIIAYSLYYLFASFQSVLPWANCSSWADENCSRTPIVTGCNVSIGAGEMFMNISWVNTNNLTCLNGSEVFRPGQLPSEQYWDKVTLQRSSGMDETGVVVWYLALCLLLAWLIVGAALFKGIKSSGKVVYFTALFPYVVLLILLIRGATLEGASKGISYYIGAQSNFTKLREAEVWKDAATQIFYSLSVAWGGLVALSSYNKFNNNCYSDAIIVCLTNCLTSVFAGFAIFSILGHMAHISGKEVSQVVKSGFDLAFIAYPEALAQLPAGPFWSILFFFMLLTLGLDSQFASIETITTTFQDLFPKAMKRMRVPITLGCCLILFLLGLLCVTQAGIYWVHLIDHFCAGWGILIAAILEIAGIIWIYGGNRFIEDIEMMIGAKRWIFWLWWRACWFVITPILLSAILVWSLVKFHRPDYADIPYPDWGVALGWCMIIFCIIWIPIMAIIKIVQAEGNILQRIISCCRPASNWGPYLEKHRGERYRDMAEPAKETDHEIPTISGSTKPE

mouse ATB^0,+ [10] = molecular target: T2, mouse ATB^0,+; experiment: Substrate-induced inward currents in X. laevis oocytes expressing mouse ATB^0,+ (two-microelectrode voltage clamp); assay type: cell-based; details: saturation kinetics; NaCl; voltage clamp
Experimental: as §1
The above studies with the mammalian cell expression system have focused on the interaction of 1-methyltryptophan and other tryptophan derivatives with ATB^0,+ by examining the effects of these compounds on the transporter-mediated glycine uptake. These studies have shown convincingly that 1-methyltryptophan interacts with ATB^0,+, with the L-isomer having much higher affinity for the transporter than the D-isomer. However, these studies have not shown whether or not 1-methyltryptophan is actually a transportable substrate for ATB^0,+. It is possible that 1-methyltryptophan inhibits ATB^0,+-mediated glycine uptake simply by blocking the interaction of glycine with the substrate-binding site of the transporter, rather than by actually competing with glycine for the transport process. […] We wanted to know whether 1-methyltryptophan can actually be transported by ATB^0,+. For this, we used the X. laevis oocyte expression system. Since the transport process mediated by ATB^0,+ is electrogenic, exposure of ATB^0,+-expressing oocytes to transportable substrates will induce an inward current in an Na^+- and Cl^−-dependent manner. Exposure of the same oocytes to blockers will interfere with currents induced by transportable substrates, but will not induce currents by themselves. […]

human ATB^0,+ [11] = molecular target: T1, human ATB^0,+; experiment: L-tryptophan-induced inward currents in X. laevis oocytes expressing human ATB^0,+; assay type: cell-based; details: 20 μM L-tryptophan (sub-saturating)
Experimental: as §1, with “Uninjected oocytes were used to determine the currents induced by tryptophan derivatives due to entry via transporters that may be constitutively expressed in the oocytes. At a concentration of 2.5 mM, the currents induced by these compounds were in the range of 0-3 nA in uninjected oocytes. These currents were less than 2% of the corresponding currents induced in ATB^0,+ cRNA-injected oocytes. Therefore the endogenous currents associated with the constitutively expressed transporters were not considered in the analysis of kinetic parameters of ATB^0,+ transport activity.” left out

## C[C@](N)(Cc1c[nH]c2ccccc12)C(=O)O [α-methyl-L-tryptophan, α-Methyl-L-Tryptophan]
Human ATB^0,+ [1]; 18 amino acids at normal plasma concentrations, read-out: concentration necessary to elicit 50% of maximal inhibition (IC50) of amino acid mixture-induced currents
  IC50: 18 ± 5 µM
Human ATB^0,+ [1]; amino acid mixture simulating plasma
  IC50 of L-isomer relative to DL-form (times less): 14 times
HCT116 and LS174T cells [2]
  induction of ASNS and CHOP genes: induced
HCT116 and LS174T cells [3]
  percent of cells in G1 phase: increased significantly
  percent of cells in S and G2/M phases: decreased
CCD841 cells [4]
  percent of cells in different cell cycle stages, control versus treated: no difference
HCT116 and LS174T cells [5]
  phosphorylation of S6 protein and S6 kinase: decreased phosphorylation
CCD841 cells [6]
  phosphorylation of S6 protein and S6 kinase: not in CCD841 cells
LS174T cells
  punctate fluorescent signals for LC-3 (autophagy): showed clear evidence of such signals
CCD841 cells [7]
  autophagy: did not undergo autophagy
HCT116 and LS174T cells [8]
  percent of apoptotic cells (cells in sub-G1 phase): increased the percent of apoptotic cells

## N[C@@H](Cc1c[nH]c2ccccc12)C(=O)O [L-tryptophan]
Mouse ATB^0,+ [9]
  inhibition of ATB^0,+-specific glycine uptake: inhibited
Mouse ATB^0,+ [10]
  Michaelis constant (K0.5) of substrate-induced currents: 26 ± 3 µM
Human ATB^0,+ [11]
  inward currents induced by L-tryptophan: ~30 nA

Reference: patent US8436039B2, “Inhibitors of the ATB(0,+) transporter and uses thereof” (Georgia Health Sciences University Research Institute, Inc., priority 2008, dated 2013)
